Experimental data from patent US11104648B2, “Pyrazole derivative” (Zhejiang Research Institute of Chemical Industry Co., Ltd., priority 2018, dated 2021).
Where two headings read alike, the source gives them in different places.

Key:
Assay type in all cases: in vivo
[1] = system: Tetranychus cinnabarinus Nymphs; assay: Activity assay of Tetranychus cinnabarinus nymphs (spray on broad bean leaves)
Experimental: According to the solubility of the test compound, the crude drug was dissolved in N, N-dimethylformamide, and then prepared into a test solution of the desired concentration with 1‰ Tween 80 aqueous solution. The content of N,N-dimethylformamide in the solution should not exceed 10%.
The broad bean leaves with petioles were cut and inserted into a small bottle with water. A certain number of brightly colored, active female adult mites were placed, 24h later, adult mites were removed, and leaves with insufficient eggs were removed. When eggs were hatched and grew into nymphs, spray treatment was performed. The experiment was repeated three times, and a blank control was set, and placed to an observation room (26±2° C., humidity 70%˜80%, 16h light per day) for culture. 48 h later, the results were investigated. The nymphs were gently touched during investigation, and if no response, they were regarded as deaths.

[2] = system: adult Tetranychus cinnabarinus; assay: Activity assay of adult Tetranychus cinnabarinus (whole-plant spray on bean seedlings); conditions: 48 h, read-out: adult mite-killing activity
Experimental: According to the solubility of the test compound, the crude drug was dissolved in N, N-dimethlfornamide, and then prepared into a test solution of the desired concentration with 1‰ Tween 80 aqueous solution. The content of N,N-dimethylformamide in the solution should not exceed 10%.
Two euphylla bean seedlings were taken, after inoculated with adult Tetranychus cinnabarinus and the base number was investigated, whole plants were sprayed with a hand-held sprayer. The experiment was repeated three times for each treatment, after treatment, placed in a standard observation room after treatment, to investigate the survival number of mites in 48 hand calculate the death rate.

[3] = system: Eggs of Tetranychus Cinnabarinus; assay: Activity assay of eggs of Tetranychus cinnabarinus (spray method, ovicidal); conditions: Tetranychus cinnabarinus, read-out: ovicidal activity
Experimental: According to the solubility of the test compound, the crude drug was dissolved in N N-dimethylformamide, and then prepared into a test solution of the desired concentration with 1‰ Tween 80 aqueous solution. The content of N. N-dimethylformamide in the solution should not exceed 10%.
Spray method. The broad bean leaves with petioles were cut and inserted into a bottle with water. A certain number of female mites were placed, 24h later, adult mites were removed, and spray treatment was performed in 24 h. The experiment was repeated three times, and a blank control was set, and placed to an observation room (26±2° C., humidity 70%˜80%, 16h light per day) for culture. When the blank control group was incubated, the results were investigated. The non-incubated ones were used as death for investigation.

[4] = 48 h, concentration 2.5 mg/L, read-out: nymph-killing activity
[5] = concentration 5 mg/L, spray, non-incubated eggs counted as dead
[6] = concentration 2.5 mg/L, 48 h, read-out: nymph-killing activity
[7] = 48 h, read-out: nymph-killing activity

| Compound | pest or weed control at 2.5 µg/mL [1, 4] [%] | pest or weed control at 2.5 µg/mL ([2]; concentration 2.5 mg/L) [%] | pest or weed control at 5 µg/mL [3, 5] [%] | pest or weed control at 2.5 µg/mL [1, 6] [%] | pest or weed control at 2.5 µg/mL [1, 7] [%] | pest or weed control at 2.5 µg/mL [2] [%] | pest or weed control at 5 µg/mL [3] [%] |
| --- | --- | --- | --- | --- | --- | --- | --- |
| Cc1cc(/C(OC(C)OC(=O)C(F)(F)F)=C(\C#N)c2ccc(C(C)(C)C)cc2)n(C)n1 (stereo not drawn) [Compound 38] | ≥ 95 | ≥ 90 | ≥ 90 | – | – | – | – |
| Cc1cc(/C(OC(C)OC(=O)c2ccccc2)=C(\C#N)c2ccc(C(C)(C)C)cc2)n(C)n1 (stereo not drawn) [Compound 39] | ≥ 95 | ≥ 90 | ≥ 90 | – | – | – | – |
| Cc1cc(/C(OC(C)OC(=O)Cc2ccccc2)=C(\C#N)c2ccc(C(C)(C)C)cc2)n(C)n1 (stereo not drawn) [Compound 40] | – | ≥ 90 | ≥ 90 | ≥ 95 | – | – | – |
| CCC(C)(C)C(=O)OC(C)O/C(=C(/C#N)c1ccc(C(C)(C)C)cc1)c1cc(C)nn1C (stereo not drawn) [Compound 41] | ≥ 95 | ≥ 90 | ≥ 90 | – | – | – | – |
| C=CC(=O)OC(C)O/C(=C(/C#N)c1ccc(C(C)(C)C)cc1)c1cc(C)nn1C (stereo not drawn) [Compound 42] | ≥ 95 | ≥ 90 | ≥ 90 | – | – | – | – |
| CC(=O)OCO/C(=C(/C#N)c1ccc(C(C)(C)C)cc1)c1c(Cl)c(C)nn1C [Compound 76] | ≥ 95 | ≥ 90 | ≥ 90 | – | – | – | – |
| CCC(=O)OCO/C(=C(/C#N)c1ccc(C(C)(C)C)cc1)c1c(Cl)c(C)nn1C [Compound 77] | ≥ 95 | ≥ 90 | ≥ 90 | – | – | – | – |
| CCCC(=O)OCO/C(=C(/C#N)c1ccc(C(C)(C)C)cc1)c1c(Cl)c(C)nn1C [Compound 78] | ≥ 95 | ≥ 90 | ≥ 90 | – | – | – | – |
| Cc1nn(C)c(/C(OCOC(=O)C(C)C)=C(\C#N)c2ccc(C(C)(C)C)cc2)c1Cl [Compound 79] | ≥ 95 | ≥ 90 | ≥ 90 | – | – | – | – |
| Cc1nn(C)c(/C(OCOC(=O)C(C)(C)C)=C(\C#N)c2ccc(C(C)(C)C)cc2)c1Cl [Compound 80] | ≥ 95 | ≥ 90 | ≥ 90 | – | – | – | – |
| CCCCC(=O)OCO/C(=C(/C#N)c1ccc(C(C)(C)C)cc1)c1c(Cl)c(C)nn1C [Compound 81] | ≥ 95 | ≥ 90 | ≥ 90 | – | – | – | – |
| Cc1nn(C)c(/C(OCOC(=O)CC(C)C)=C(\C#N)c2ccc(C(C)(C)C)cc2)c1Cl [Compound 82] | ≥ 95 | ≥ 90 | ≥ 90 | – | – | – | – |
| COCC(=O)OCO/C(=C(/C#N)c1ccc(C(C)(C)C)cc1)c1c(Cl)c(C)nn1C [Compound 83] | ≥ 95 | ≥ 90 | ≥ 90 | – | – | – | – |
| Cc1nn(C)c(/C(OCOC(=O)C2CC2)=C(\C#N)c2ccc(C(C)(C)C)cc2)c1Cl [Compound 84] | ≥ 95 | ≥ 90 | ≥ 90 | – | – | – | – |
| CSCC(=O)OCO/C(=C(/C#N)c1ccc(C(C)(C)C)cc1)c1c(Cl)c(C)nn1C [Compound 85] | ≥ 95 | ≥ 90 | ≥ 90 | – | – | – | – |
| Cc1nn(C)c(/C(OCOC(=O)C2CCCCC2)=C(\C#N)c2ccc(C(C)(C)C)cc2)c1Cl [Compound 86] | ≥ 95 | ≥ 90 | ≥ 90 | – | – | – | – |
| Cc1nn(C)c(/C(OCOC(=O)CF)=C(\C#N)c2ccc(C(C)(C)C)cc2)c1Cl [Compound 87] | – | – | – | – | ≥ 95 | ≥ 90 | ≥ 90 |
| Cc1nn(C)c(/C(OCOC(=O)C(F)(F)F)=C(\C#N)c2ccc(C(C)(C)C)cc2)c1Cl [Compound 88] | ≥ 95 | ≥ 90 | ≥ 90 | – | – | – | – |
| Cc1nn(C)c(/C(OCOC(=O)c2ccccc2)=C(\C#N)c2ccc(C(C)(C)C)cc2)c1Cl [Compound 89] | ≥ 95 | ≥ 90 | ≥ 90 | – | – | – | – |
| Cc1nn(C)c(/C(OCOC(=O)Cc2ccccc2)=C(\C#N)c2ccc(C(C)(C)C)cc2)c1Cl [Compound 90] | – | ≥ 90 | ≥ 90 | ≥ 95 | – | – | – |

| Compound | pest or weed control at 2.5 µg/mL [1, 4] [%] | pest or weed control at 2.5 µg/mL ([2]; concentration 2.5 mg/L) [%] | pest or weed control at 5 µg/mL [3, 5] [%] | pest or weed control at 2.5 µg/mL [1, 6] [%] | pest or weed control at 2.5 µg/mL [1, 7] [%] | pest or weed control at 2.5 µg/mL [2] [%] | pest or weed control at 5 µg/mL [3] [%] |
| --- | --- | --- | --- | --- | --- | --- | --- |
| CCC(C)(C)C(=O)OCO/C(=C(/C#N)c1ccc(C(C)(C)C)cc1)c1c(Cl)c(C)nn1C [Compound 91] | ≥ 95 | ≥ 90 | ≥ 90 | – | – | – | – |
| C=CC(=O)OCO/C(=C(/C#N)c1ccc(C(C)(C)C)cc1)c1c(Cl)c(C)nn1C [Compound 92] | ≥ 95 | ≥ 90 | ≥ 90 | – | – | – | – |
| CC(=O)OC(C)O/C(=C(/C#N)c1ccc(C(C)(C)C)cc1)c1c(Cl)c(C)nn1C (stereo not drawn) [Compound 101] | ≥ 95 | ≥ 90 | ≥ 90 | – | – | – | – |
| CCC(=O)OC(C)O/C(=C(/C#N)c1ccc(C(C)(C)C)cc1)c1c(Cl)c(C)nn1C (stereo not drawn) [Compound 102] | ≥ 95 | ≥ 90 | ≥ 90 | – | – | – | – |
| CCCC(=O)OC(C)O/C(=C(/C#N)c1ccc(C(C)(C)C)cc1)c1c(Cl)c(C)nn1C (stereo not drawn) [Compound 103] | ≥ 95 | ≥ 90 | ≥ 90 | – | – | – | – |
| Cc1nn(C)c(/C(OC(C)OC(=O)C(C)C)=C(\C#N)c2ccc(C(C)(C)C)cc2)c1Cl (stereo not drawn) [Compound 104] | ≥ 95 | ≥ 90 | ≥ 90 | – | – | – | – |
| CCCCC(=O)OC(C)O/C(=C(/C#N)c1ccc(C(C)(C)C)cc1)c1c(Cl)c(C)nn1C (stereo not drawn) [Compound 106] | ≥ 95 | ≥ 90 | ≥ 90 | – | – | – | – |
| Cc1nn(C)c(/C(OC(C)OC(=O)CC(C)C)=C(\C#N)c2ccc(C(C)(C)C)cc2)c1Cl (stereo not drawn) [Compound 107] | ≥ 95 | ≥ 90 | ≥ 90 | – | – | – | – |
| COCC(=O)OC(C)O/C(=C(/C#N)c1ccc(C(C)(C)C)cc1)c1c(Cl)c(C)nn1C (stereo not drawn) [Compound 108] | ≥ 95 | ≥ 90 | ≥ 90 | – | – | – | – |
| Cc1nn(C)c(/C(OC(C)OC(=O)C2CC2)=C(\C#N)c2ccc(C(C)(C)C)cc2)c1Cl (stereo not drawn) [Compound 109] | ≥ 95 | ≥ 90 | ≥ 90 | – | – | – | – |
| CSCC(=O)OC(C)O/C(=C(/C#N)c1ccc(C(C)(C)C)cc1)c1c(Cl)c(C)nn1C (stereo not drawn) [Compound 110] | ≥ 95 | ≥ 90 | ≥ 90 | – | – | – | – |
| Cc1nn(C)c(/C(OC(C)OC(=O)C2CCCCC2)=C(\C#N)c2ccc(C(C)(C)C)cc2)c1Cl (stereo not drawn) [Compound 111] | ≥ 95 | ≥ 90 | ≥ 90 | – | – | – | – |
| Cc1nn(C)c(/C(OC(C)OC(=O)CF)=C(\C#N)c2ccc(C(C)(C)C)cc2)c1Cl (stereo not drawn) [Compound 112] | – | – | – | – | ≥ 95 | ≥ 90 | ≥ 90 |
| Cc1nn(C)c(/C(OC(C)OC(=O)C(F)(F)F)=C(\C#N)c2ccc(C(C)(C)C)cc2)c1Cl (stereo not drawn) [Compound 113] | ≥ 95 | ≥ 90 | ≥ 90 | – | – | – | – |
| Cc1nn(C)c(/C(OC(C)OC(=O)c2ccccc2)=C(\C#N)c2ccc(C(C)(C)C)cc2)c1Cl (stereo not drawn) [Compound 114] | ≥ 95 | ≥ 90 | ≥ 90 | – | – | – | – |
| Cc1nn(C)c(/C(OC(C)OC(=O)Cc2ccccc2)=C(\C#N)c2ccc(C(C)(C)C)cc2)c1Cl (stereo not drawn) [Compound 115] | – | ≥ 90 | ≥ 90 | ≥ 95 | – | – | – |
| CCC(C)(C)C(=O)OC(C)O/C(=C(/C#N)c1ccc(C(C)(C)C)cc1)c1c(Cl)c(C)nn1C (stereo not drawn) [Compound 116] | ≥ 95 | ≥ 90 | ≥ 90 | – | – | – | – |
| C=CC(=O)OC(C)O/C(=C(/C#N)c1ccc(C(C)(C)C)cc1)c1c(Cl)c(C)nn1C (stereo not drawn) [Compound 117] | ≥ 95 | ≥ 90 | ≥ 90 | – | – | – | – |
| CC(=O)OCO/C(=C(/C#N)c1ccc(C(C)(C)C)cc1)c1c(C)c(C)nn1C [Compound 151] | ≥ 95 | ≥ 90 | ≥ 90 | – | – | – | – |
